Biological target: T1, human Y5 receptor (Homo sapiens, UniProt Q15761)
T1 sequence (Q15761 1-445): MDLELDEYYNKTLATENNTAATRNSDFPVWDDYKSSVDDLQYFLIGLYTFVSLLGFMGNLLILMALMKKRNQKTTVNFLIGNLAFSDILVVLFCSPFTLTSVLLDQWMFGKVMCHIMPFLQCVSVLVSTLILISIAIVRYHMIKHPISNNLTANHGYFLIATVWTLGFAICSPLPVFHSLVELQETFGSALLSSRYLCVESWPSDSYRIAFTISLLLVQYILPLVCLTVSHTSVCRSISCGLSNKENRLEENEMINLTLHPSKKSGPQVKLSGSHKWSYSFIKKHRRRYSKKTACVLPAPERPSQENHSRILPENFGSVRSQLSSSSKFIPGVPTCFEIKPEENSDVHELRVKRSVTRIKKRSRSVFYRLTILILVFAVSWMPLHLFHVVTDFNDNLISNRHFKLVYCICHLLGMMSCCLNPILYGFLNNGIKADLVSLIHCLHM
Test: Y5 receptor binding inhibition test
Settings: not given

Row | Structure (SMILES) | % Inhibition ratio (10 μM) [%]
1 | O=C(Nc1ccc2c(c1)c1c(n2CCO)CCCC1)N1CCOCC1 [Compound 8-9] | 101
2 | CCCn1c2c(c3cc(NC(=O)N4CCOCC4)ccc31)CCCC2 [Compound 8-3] | 101

Same assay, conditions: 2 h, read-out: % Inhibition ratio (10 μM)

Row | inhibition at 10 µM [%] | Structure (SMILES)
3 | 71 | CCn1c2c(c3cc(C(=O)NCCOCCSc4ncn[nH]4)ccc31)CCCC2 [Compound 2-1]
4 | 80 | CCOc1c(C(=O)NCCCCCNS(=O)(=O)c2cccc3ccccc23)ccc2c1c1ccccc1n2CC [Compound 1-39]
5 | 97 | CCn1c2ccccc2c2cc(C(=O)NCCCCCNC(=O)c3ccccc3)ccc21 [Compound 1-21]
6 | 93 | CC(C)S(=O)(=O)NCCCCCNC(=O)c1ccc2c(c1)c1c(n2CCO)CCCC1 [Compound 1-59]
7 | 98 | CCn1c2ccccc2c2cc(NC(=O)CCCNS(=O)(=O)c3cccc4ccccc34)ccc21 [Compound 1-5]
8 | 86 | CCn1c2ccccc2c2cc(C(=O)NCCCCCNC(=O)C34CC5CC(CC(C5)C3)C4)ccc21 [Compound 1-20]
9 | 109 | CCn1c2ccccc2c2cc(C(=O)NCCCCCNS(=O)(=O)C(C)C)ccc21 [Compound 1-13]
10 | 89 | COCCn1c2c(c3cc(C(=O)NCCOCCNS(=O)(=O)C(C)C)ccc31)CCCC2 [Compound 1-50]
11 | 96 | CC(C)n1c2c(c3cc(NC(=O)N(C)CCc4ccncc4)cc(F)c31)CCCC2 [Compound 12-2]
12 | 85 | CCn1c2c(c3cc(C(=O)NCCOCCn4nnnc4N)ccc31)CCCC2 [Compound 2-4]
13 | 95 | CCn1c2ccccc2c2cc(NC(=O)COC)ccc21 [Compound 3-7]
14 | 100 | CCn1c2ccccc2c2cc(C(=O)NCCOCCNS(=O)(=O)c3cccc4ccccc34)ccc21 [Compound 1-28]
15 | 100 | CC(C)n1c2c(c3cc(NC(=O)CCCCCNS(=O)(=O)c4cccc5ccccc45)ccc31)CCCC2 [Compound 1-9]
16 | 99 | CCn1c2ccccc2c2cc(C(=O)NCCN(C)CCNS(=O)(=O)c3cccc4ccccc34)ccc21 [Compound 1-30]
17 | 77 | CCCCCCCCS(=O)(=O)NCCCCCNC(=O)c1ccc2c(c1)c1ccccc1n2CC [Compound 1-12]
18 | 97 | CC(C)n1c2c(c3cc(NC(=S)N(C)CCc4ccncc4)ccc31)CCCC2 [Compound 12-3]
19 | 88 | CCn1c2ccccc2c2cc(C(=O)NC(C)CCCCNS(=O)(=O)c3cccc4ccccc34)ccc21 (stereo not shown) [Compound 1-34]
20 | 94 | CCn1c2ccccc2c2cc(C(=O)NCCCCCN3C(=O)c4ccccc4C3=O)ccc21 [Compound 1-56]
21 | 93 | CCn1c2ccccc2c2cc(NC(=O)CCCCNS(=O)(=O)c3ccc4ccccc4c3)ccc21 [Compound 1-6]
22 | 84 | CCn1c2ccccc2c2cc(C(=O)NCCCCCNC(=O)C3CCCCC3)ccc21 [Compound 1-19]
23 | 89 | CCn1c2ccccc2c2cc(C(=O)NCCCCCNC(=O)c3cccc4ccccc34)ccc21 [Compound 1-22]
24 | 77 | CC(C)S(=O)(=O)NCCCCCNC(=O)c1ccc2c(c1)c1c(n2CC(N)=O)CCCC1 [Compound 1-61]
25 | 78 | CCn1c2ccccc2c2cc(NC(=O)CCCCCCCNS(=O)(=O)c3cccc4ccccc34)ccc21 [Compound 1-3]
26 | 74 | CCn1c2ccccc2c2cc(C(=O)NCCCCCNS(=O)(=O)c3cccc4ccccc34)c(O)cc21 [Compound 1-42]
27 | 88 | CC(=O)n1c2ccccc2c2cc(C(=O)NCCCCCNS(=O)(=O)c3cccc4ccccc34)ccc21 [Compound 1-54]
28 | 82 | CCn1c2ccccc2c2cc(C(=O)NCCCCCCNS(=O)(=O)c3cccc4ccccc34)ccc21 [Compound 1-33]
29 | 66 | COCCn1c2c(c3cc(C(=O)NCCOCCNS(=O)(=O)c4cccnc4)ccc31)CCCC2 [Compound 1-58]
30 | 93 | CCn1c2ccccc2c2cc(C(=O)NCCCCCNS(=O)(=O)c3cccc4c(N(C)C)cccc34)ccc21 [Compound 1-17]
31 | 66 | COCCn1c2c(c3cc(C(=O)NCCOCCNS(C)(=O)=O)ccc31)CCCC2 [Compound 1-53]

Same assay, conditions: test compound 10 μM; 3H-NPY; membrane of insect cells expressing human Y5 receptor; 4° C., 2 hours; relative to Y5 specific binding in solvent group

Row | % Inhibition ratio (10 μM) [%] | Structure (SMILES)
32 | 100 | O=C(Nc1ccc2c(c1)c1c(n2CC2CC2)CCCC1)N1CCOCC1 [Compound 8-7]
33 | 97 | CC(C)n1c2c(c3cc(NC(=O)N4CCOCC4)ccc31)CCCCC2 [Compound 11-4]
34 | 95 | CC(C)n1c2c(c3cc(NC(=O)N(C)CCCSc4nnc[nH]4)ccc31)CCCC2 [Compound 5-24]
35 | 90 | CC(C)n1c2c(c3cc(NC(=O)N4CCC(O)C4)ccc31)CCCC2 (stereo not shown) [Compound 7-4]
36 | 92 | CC(C)n1c2c(c3cc(NC(=O)N4CCCC4)ccc31)CCCC2 [Compound 7-1]
37 | 91 | CC(C)n1c2c(c3cc(NC(=O)N4CCCCC4CO)ccc31)CCCC2 (stereo not shown) [Compound 7-9]
38 | 92 | CC(C)n1c2c(c3cc(NC(=O)N4CCNCC4)ccc31)CCCC2 [Compound 7-18]
39 | 101 | CC(C)n1c2c(c3cc(NC(=O)N(C)CCSc4ncc[nH]4)ccc31)CCCC2 [Compound 5-25]
40 | 104 | CC(C)n1c2c(c3cc(NC(=O)N(C)CCOCCO)ccc31)CCCC2 [Compound 5-10]
41 | 100 | CC(C)n1c2c(c3cc(NC(=O)N(C)CCc4cccnc4)ccc31)CCCC2 [Compound 5-19]
42 | 96 | CC(C)n1c2c(c3cc(NC(=O)N4CCSC4)ccc31)CCCC2 [Compound 7-14]
43 | 97 | CC(C)n1c2c(c3cc(NC(=O)N4CCC(O)CC4)ccc31)CCCC2 [Compound 7-7]
44 | 100 | CC(C)Cn1c2c(c3cc(NC(=O)N4CCOCC4)ccc31)CCCC2 [Compound 8-6]
45 | 94 | CC(C)n1c2c(c3cc(NC(=O)N4CCC(CCO)CC4)ccc31)CCCC2 [Compound 7-12]
46 | 88 | CC(C)n1c2c(c3cc(NC(=O)N4CCC[C@@H]4CO)ccc31)CCCC2 [Compound 7-6]
47 | 100 | CC(C)n1c2c(c3cc(NC(=O)N(C)Cc4ccncc4)ccc31)CCCC2 [Compound 5-17]
48 | 82 | CC(C)n1c2c(c3cc(NC(=O)N(C)CCCN(C)C)ccc31)CCCC2 [Compound 5-5]

Row | Structure (SMILES) | % Inhibition ratio (10 μM) [%]
49 | CC(C)n1c2c(c3cc(NC(=O)N4CCC(N5CCCCC5)CC4)ccc31)CCCC2 [Compound 7-13] | 83
50 | CC(C)n1c2c(c3cc(NC(=O)N4CCSCC4)ccc31)CCCC2 [Compound 7-15] | 88
51 | CCn1c2c(c3cc(NC(=O)N4CCOCC4)ccc31)CCCC2 [Compound 8-2] | 95
52 | CC(C)n1c2c(c3cc(NC(=O)N(C)CCc4ccncc4)ccc31)CCCCC2 [Compound 11-3] | 100
53 | CC(C)n1c2c(c3cc(NC(=O)N4CCN(c5ccccn5)CC4)ccc31)CCCC2 [Compound 7-20] | 89
54 | CC(C)n1c2c(c3cc(NC(=O)N(C)CCN4CCCCC4)ccc31)CCCC2 [Compound 5-14] | 95
55 | CC(C)n1c2c(c3cc(NC(=O)N4CCN(c5ncccn5)CC4)ccc31)CCCC2 [Compound 7-21] | 80
56 | CC(C)n1c2c(c3cc(NC(=O)N(C)CCc4ccncc4)ccc31)CCC2 [Compound 10-3] | 95
57 | CC(C)n1c2c(c3cc(NC(=O)N(C)CC4CCCO4)ccc31)CCCC2 (stereo not shown) [Compound 5-13] | 98
58 | N#CCn1c2c(c3cc(NC(=O)N4CCOCC4)ccc31)CCCC2 [Compound 8-10] | 78

From patent US6713473B1, “Tricyclic compounds” (Meiji Seika Kaisha, Ltd., priority 1999, dated 2004)
